Patent US10799456B2, “Multiple drug lipid nanoparticle composition and related methods for extended drug levels in blood and lymph tissue” (priority 2015, dated 2020)
Like-named read-outs stand apart in the source and are kept apart here.

Experiments:
in vivo = details: for concentration at 24 h: sc, Mean drug concentration, Plasma; for LNP/free ratio of plasma AUC 0-168: increase in total drug exposure, fold
From the text: Four young adult male macaques (Macaca nemestrina, 2.9-4.0 kg) were housed and cared for by the Washington National Primate Research Center (WaNPRC) under an approved Institutional Animal Care and Use Committee protocol.
The vehicle for the first suspension was bicarbonate-buffered saline with 3% ethanol and 0.2% bovine serum albumin. The vehicle for the second suspension was bicarbonate-buffered saline with 8% DMSO and 0.1% Tween 20.
(§1) Four macaques were divided into two treatment groups (two animals per group). […] Data were normalized to the anti-HIV LNP dose for comparative analysis.
(§2) Plasma was removed, PBMCs were isolated by the density gradient method, and cells were aliquoted into pellets of approximately 2 million PBMCs each. An inguinal lymph node was surgically excised 24 h after drug administration (n=2 per treatment), LNMCs were isolated by passage through a 100-lm nylon cell strainer (Corning, Tewksbury, Mass.), and cells were aliquoted into pellets of approximately 1-2 million LNMCs each. All samples were stored at −80° C. prior to drug analysis.
(§3) Plasma concentrations of all three drugs were analyzed simultaneously by liquid chromatography-tandem mass spectrometry using a recently published method. […] Antimicrob Agents Chemother 2014; 58(5):2675-2680, incorporated herein by reference in its entirety. PBMC and LNMC pellets were lysed using 200 μl water/methanol (1:1 v/v), sonicated for 10 min, and then extracted and analyzed using the same method as cited above. Intracellular concentrations were converted to ng/ml with the assumption that each cell has a volume of 4×10^−9 ml. Alberts B, Johnson A, Lewis J, et al. Molecular Biology of the Cell, 4 ed. Garland Science, New York, 2002, incorporated herein by reference in its entirety.
Data were analyzed by paired two-tailed Student's t-test with p<0.05 considered statistically significant.

[1] = Sucrose gradient test of drug association; format: physicochemical; details: 5-20% sucrose gradient, 200,000 g, 4 hr, LPV/RTV/TFV LNPs, single miscible solvent method
Procedure: The sucrose gradient test to determine this characteristic is described in Example 5. Briefly, the sucrose gradient test comprises subjecting the multi-drug lipid nanoparticle to a continuous 5%-20% sucrose gradient and applying a centrifugal force of 200,000 g for 4 hours. The unassociated small molecules separate and float to the less dense fractions, whereas the associated small molecule agents sediment with the stable lipid nanoparticles in the denser gradients. The relative amounts of the unassociated and associated small molecule reagents can be quantified and, thus, compared.
The sucrose gradient test centrifugation test separates any unbound drugs from multi-drug lipid nanoparticles by sedimentation of lipid-drug particles through a sucrose gradient with increasing density to strip off unbound drugs. Under these conditions, all the free drugs in solution remained at (or floated to) the top of gradient where the sucrose density is low. Specifically, using a continuous gradient of 5-20% (with 65% cushion) sucrose, the lipid-drug particle mixture was subjected to centrifugal force at 200,000 g for 4 hr. Through this process, we were able to separate bound and unbound drug fractions. […] It is noted that the observed percentage of multi drug lipid nanoparticle association for the other two drugs (LPV and RTV) are consistent with data in Table 11.

[2] = Plasma time course of ATV/RTV/TFV lipid nanoparticles in primates; format: in vivo, Macaca nemestrina; details: for AUC fraction (% total) 8-168 h: male, Macaca nemestrina, in vivo, sc
Procedure: All animal procedures were performed under an approved protocol reviewed by the University of Washington Institutional Animal Care and Use Committee. […] ATV, RTV, and TFV in the plasma were extracted in duplicate and analyzed with a liquid chromatography-mass spectrometry assay with a validated reverse phase HPLC/MS/MS method, similar to that of lopinavir (LPV), RTV, and TFV. […] Antimicrobial agents and chemotherapy. 2014. The linear trapezoidal method was used to calculate the area under the plasma drug concentration-time curve (AUC) for ATV, RTV, and TFV during the time course, which was close to 168 h post-dosing. […] All drugs in buffer and plasma were analyzed using a validated HPLC/MS/MS analytical method, capable of analyzing […], and TFV. The one-step analysis for LPV, RTV, and TFV was published previously. […] Antimicrobial agents and chemotherapy. 2014. Briefly, the HPLC system was outfitted with a Shimadzu 20AD HPLC (Shimadzu Scientific Instruments, Inc., Pleasanton, Calif.). […] Multiple reaction monitoring (MRM) was used to detect transition ions from a specific precursor ion to product ion. The analytes were detected using the following m/z transitions: 705.5/168.2 for ATV, 548.3/392.3 for DRV, 721.3/296.1 for RTV, 288.1/176 for TFV, and 238.1/193.2 for cyheptamide.

[3] = Storage stability at 4° C. (fraction of drug bound, dialysis); format: physicochemical
Procedure: To test the long-term stability, the multi-drug nanoparticles were stored under refrigeration at 4° C. and were tested for stability after a prolonged period. The lipid-drug combination particles are stable as determined by both particle size and degree of drug association (Table 12). […] Even the hydrophilic compound, which readily diffuses out of most lipid particles in a number of hours, loses a remarkably low fraction of the associated drug after 8, 12, and 17 months in storage. This exceptional stability provides a substantial advantage for translation to clinical application.

[4] = Intracellular drug concentration in inguinal lymph node mononuclear cells (LNMCs); details: for Kp at 24 h / concentration at 24 h: male, Macaca nemestrina, in vivo; for Kp at 24 h: LN/plasma ratio; for concentration at 24 h: sc, Mean drug concentration, Lymph node
Procedure: as §1, §2, §3

[5] = Drug incorporation/encapsulation (association) efficiency of multi-drug LNPs by dialysis; format: physicochemical; details: for Degree of incorporation (% total): anti-HIV LNPs LPV/RTV/PMPA
Procedure: The anti-HIV LNP formulations contain both unbound drug and drugs bound to lipid nanoparticles. […] Drugs were quantified by LC-MS/MS using acetonitrile precipitation. Encapsulation efficiency (EE) was calculated as follows: […]

HIV-1 = test: microbe, parasite or virus in culture
[6] = male, Macaca nemestrina, in vivo
[7] = male, Macaca nemestrina, in vivo, Anti-HIV LNP treatment
[8] = male, Macaca nemestrina, in vivo, Free drug treatment
[9] = Combination 1, lipid:LPV:RTV:TFV 115:10:5:15, large scale
[10] = Combination 2, lipid:ATZ:RTV:TFV 115:10:5:15, large scale
[11] = Human immunodeficiency virus 1, read-out: EC50 in LNP form
[12] = Human immunodeficiency virus 1, read-out: EC50 in free form
[13] = plasma, listed as Tenofovir (PMPA)

| SMILES | AUC 0-8 (%) of total, LNP (in vivo; [6]) [%] | AUC 8-168 (%) of total, LNP (in vivo; [6]) [%] | concentration at 24 h (in vivo; [7]) [ng/mL] | concentration at 24 h (in vivo; [8]) [ng/mL] | % association to lipid-drug particles (bound fraction) [1] | AUC fraction (% total) 8-168 h [2] [%] | Fraction of drug bound in multi-drug nanoparticles (% total) ([3]; 0 months) [%] | Fraction of drug bound in multi-drug nanoparticles (% total) ([3]; 8 months) [%] | Fraction of drug bound in multi-drug nanoparticles (% total) ([3]; 12 months) [%] | Fraction of drug bound in multi-drug nanoparticles (% total) ([3]; 17 months, one batch) [%] | Kp at 24 h ([4]; Free drug treatment, 24 h) | concentration at 24 h ([4]; Anti-HIV LNP treatment) [ng/mL] | concentration at 24 h ([4]; Free drug treatment) [ng/mL] | % particle-bound [5, 9] | % particle-bound [5, 10] | Degree of incorporation (% total) ([5]; laboratory scale (0.1-0.4 ml)) [%] | EC50 (HIV-1; [11]) [nM] | EC50 (HIV-1; [12]) [nM] | also measured |
| --- | --- | --- | --- | --- | --- | --- | --- | --- | --- | --- | --- | --- | --- | --- | --- | --- | --- | --- | --- |
| CC(C)c1nc(CN(C)C(=O)N[C@H](C(=O)N[C@@H](Cc2ccccc2)C[C@H](O)[C@H](Cc2ccccc2)NC(=O)OCc2cncs2)C(C)C)cs1 [Ritonavir (RTV), Ritonavir] | 11.3 | 88.7 | 164 ± 116 | 5.9 ± 9.3 | 76% | 80.4 | 88.30 ± 7.38 | 93.01 ± 7.70 | 94.91 ± 13.66 | 90.50 | 5.5 | 1640 ± 19 | 32.6 ± 32.6 | (83.4 ± 1.4) % | (88.5 ± 3.1) % | 74.2 ± 8.4 | 30 ± 0.8 | 98 ± 0.3 | AUC fraction (% of total) Anti-HIV LNP 24-168 h (in vivo; [6]): 57.0 ± 12.5%; AUC 0-8 h ([2]; plasma, average of two primates, sc ATV/RTV/TFV LNPs 25/12.8/15.3 mg/kg): 339.1 ng·h/mL; Degree of incorporation (% total) ([5]; clinical scale (15-40 ml)): 90.7 ± 7.4% |
| C[C@H](Cn1cnc2c(N)ncnc21)OCP(=O)(O)O [Tenofovir (TFV), [(2R)-1-(6-aminopurin-9-yl)propan-2-yl]oxymethylphosphonic acid] | 9.1 | 90.9 | 3600 ± 3510 | 0.9 ± 1.1 | around 75.5% | 97.4 | 9.32 ± 3.79 | 7.72 ± 2.95 | 8.79 ± 0.92 | 7.30 | 284 | 190 ± 22.8 | 256 ± 31.5 | (9.9 ± 2.9) % | (7.9 ± 1.8) % | 11.8 ± 5.1 | 15 ± 0.1 | 49 ± 0.2 | AUC LNP/free ratio (in vivo; 0-168 h): 7.0; Ratio comparison between treatments (LNP/free), Plasma (in vivo; 24 h): 3992.8; LNP/free ratio of plasma AUC 0-168 (in vivo): 7.0; LNP/free ratio of plasma AUC 0-168 (in vivo; listed as TFV): 7; AUC fraction (% of total) Anti-HIV LNP 0-24 h (in vivo; plasma): 48.8 ± 33.7%; AUC fraction (% of total) Free drug 0-24 h (in vivo; plasma): 99.9 ± 0.2%; AUC Free drug 0-168 h (in vivo; plasma, sc 25/14.3/17.1 mg/kg LPV/RTV/PMPA, four animals): 56600 ± 17040 ng·h/mL; AUC fraction (% of total) Anti-HIV LNP 24-168 h (in vivo; plasma, listed as PMPA): 51.2%; AUC fraction (% of total) Free drug 24-168 h (in vivo; plasma, listed as PMPA): 0.1%; AUC fraction (% of total) Anti-HIV LNP 24-168 h (in vivo; [13]): 51.2 ± 33.7%; AUC fraction (% of total) Free drug 24-168 h (in vivo; [13]): 0.1 ± 0.2%; % association to lipid-drug particles (bound fraction) ([1]; listed as Tenofovir (TFV or PMPA)): 75.5%; LNP/free ratio, mononuclear cells of inguinal nodes ([4]; 24 h): 0.7; Ratio comparison between treatments (LNP/free), Lymph node ([4]; 24 h): 0.7; LNP/free ratio, mononuclear cells of inguinal nodes ([4]; 24 h, listed as TFV): 0.7; Kp at 24 h ([4]; Anti-HIV LNP treatment, 24 h): 0.1; % particle-bound ([5]; Combination 3, lipid:LPV:EFV:TFV 200:26.6:20:40, large scale): (7.9) %; stable lipid association ([5]; across drug combinations): 8-10%; Degree of incorporation (% total) ([5]; clinical scale (15-40 ml), listed as PMPA): 12%; Degree of incorporation (% total) ([5]; clinical scale (15-40 ml), listed as Tenofovir): 11.9 ± 3.0% |
